Results: patent US20140235626A1, “PYRIDINE DERIVATIVES AND A PHARMACEUTICAL COMPOSITION FOR INHIBITING BACE1 CONTAINING THEM” (SHIONOGI & CO., LTD., priority 2011, published 2014)
pIC50: −log10 of the molar value. Where two headings read alike, the source gives them in different places.

Experiments:
Recombinant human BACE-1 = target: T1, Recombinant human BACE-1 (Homo sapiens, UniProt P56817); test: Assay of BACE-1 inhibiting activity; assay type: biochemical; settings: Recombinant human BACE-1 7.4 nmol/L, substrate peptide 18 nmol/L, pH 5.0, 30° C., 3.5 hours; read-out: IC50 value (50% inhibitory concentration against the enzymatic activity)
T1 construct: purchased R&D Systems
Protocol: 48.5 μL of substrate peptide solution (Biotin-XSEVNLDAEFRHDSGC-Eu: X=ε-amino-n-capronic acid, Eu=Europium cryptate) was added to each well of 96-hole half-area plate (a black plate: Costar), and after addition of 0.5 μl of the compound of the present invention (DMSO solution) and 1 μl of Recombinant human BACE-1 (R&D Systems), the reaction mixture was incubated at 30° C. for 3.5 hours. The substrate peptide was synthesized by reacting Cryptate TBPCOOH mono SMP (CIS bio international) with Biotin-XSEVNLDAEFRHDSGC (Peptide Institute, Inc.). The final concentrations of the substrate peptide and Recombinant human BACE-1 were adjusted to 18 nmol/L and 7.4 nmol/L, respectively, and the reaction was performed in sodium acetate buffer (50 mmol/L sodium acetate, pH 5.0, 0.008% Triton X-100).
After the incubation for reaction, 50 μl of 8.0 μg/ml Streptavidin-XL665 (CIS bio international) dissolved in phosphate buffer (150 mmol/L K2HPO4—KH2PO4, pH 7:0, 0.008% Triton X-100, 0.8 mol/L KF) was added to each well and left stand at 30° C. for 45 minutes. After then, fluorescence intensity was measured (excitation wavelength: 320 nm, measuring wavelength: 620 nm and 665 nm) using Wallac 1420 multilabel counter (Perkin Elmer life sciences). Enzymatic activity was determined from counting ratio of each wavelength (10,000×Count 665/Count 620) and 50% inhibitory concentration against the enzymatic activity (IC50) was calculated.

CYP3A4 = target: T2, CYP3A4 (Homo sapiens, UniProt P08684); test: CYP3A4 fluorescent MBI test; assay type: in vitro ADME; settings: substrate 7-BFC; pre-reaction time 0 or 30 minutes; compound 0.625-20 μmol/L
T2 construct: host or cells: Escherichia coli (printed 'Escherichia cob')
Protocol: The CYP3A4 fluorescent MBI test is a test of investigating enhancement of CYP3A4 inhibition of a compound by a metabolism reaction. 7-benzyloxytrifluoromethylcoumarin (7-BFC) is debenzylated by the CYP3A4 enzyme (enzyme expressed in Escherichia cob) and 7-hydroxytrifluoromethylcoumarin (7-HFC) is produced as a fluorescing metabolite. The test is performed using 7-HFC production reaction as an index.
The reaction conditions are as follows: substrate, 5.6 […], 7-BFC; pre-reaction time, 0 or 30 minutes; reaction time, 15 minutes; reaction temperature, 25° C. […]
An enzyme in a K-Pi buffer (pH 7.4) and a compound of the present invention solution as a pre-reaction solution were added to a 96-well plate at the composition of the pre-reaction. […] Fluorescent values of 7-HFC as a metabolite were measured in each index reaction plate with a fluorescent plate reader (Ex=420 nm, Em=535 nm).
The sample adding DMSO to a reaction system instead of compound of the present invention solution is adopted as a control (100%) because DMSO is used as a solvent to dissolve a compound of the present invention. Remaining activity (%) was calculated at each concentration of the compound of the present invention added as the solution, and IC50 was calculated by reverse-presumption by a logistic model using a concentration and an inhibition rate. […]

[1] = BA test (oral absorption); assay type: in vivo, mouse or SD rat; settings: plasma; from AUCs of oral (1 to 30 mg/kg) and intravenous (0.5 to 10 mg/kg) administration groups
Protocol: Materials and Methods for Studies on Oral Absorption (1) Animal: mouse or SD rat (2) Breeding conditions: mouse or SD rat is allowed free access to the sterilized tap water and the solid food. […] (6) Evaluation items: blood was collected at the scheduled time, and the plasma concentration of the compound of the present invention was measured by LC/MS/MS (7) Statistical analysis: regarding the transition of the plasma concentration of the compound of the present invention, the area under the plasma concentration-time curve (AUC) was calculated by non-linear least squares program WinNonlin (Registered trademark), and the bioavailability (BA) of the compound of the present invention was calculated from the AUCs of the oral administration group and intravenous administration group

[2] = Metabolism stability test; assay type: in vitro ADME; settings: pooled human liver microsomes 0.5 mg protein/mL, 1 mmol/L NADPH, 37° C., 30 minutes; 0 minute = 100%
Protocol: Using a commercially available pooled human liver microsomes, a compound of the present invention is reacted for a constant time, a remaining rate is calculated by comparing a reacted sample and an unreacted sample, thereby, a degree of metabolism in liver was assessed.
A reaction was performed (oxidative reaction) at 37° C. for 0 minute or 30 minutes in the presence of 1 mmol/L NADPH in 0.2 mL of a buffer (50 mmol/L Tris-HCl pH 7.4, 150 mmol/L potassium chloride, 10 mmol/L magnesium chloride) containing 0.5 mg protein/mL of human liver microsomes. After the reaction, 50 μL of the reaction solution was added to 100 μL of a methanol/acetonitrile=1/1 (v/v), mixed and centrifuged at 3000 rpm for 15 minutes. The compound of the present invention in the supernatant was quantified by LC/MS/MS, and a remaining amount of the compound of the present invention after the reaction was calculated, letting a compound amount at 0 minute reaction time to be 100%.

[3] = Solubility test (turbidity, JP-I, JP-II); assay type: physicochemical; settings: kinetic from dmso stock, 2% DMSO, turbidity after 4 hours
Protocol: A 2-fold dilution series (12 points) of a 10 mM solution of a compound of the present invention in DMSO was added to a medium (JP-I, JP-II) (2%), and solubility was assessed by 3 stages (High; >40 μM, Medium; 3-40 μM, Low; <3 μM) from a turbidity after 4 hours.

T1 sequence (P56817 46-501): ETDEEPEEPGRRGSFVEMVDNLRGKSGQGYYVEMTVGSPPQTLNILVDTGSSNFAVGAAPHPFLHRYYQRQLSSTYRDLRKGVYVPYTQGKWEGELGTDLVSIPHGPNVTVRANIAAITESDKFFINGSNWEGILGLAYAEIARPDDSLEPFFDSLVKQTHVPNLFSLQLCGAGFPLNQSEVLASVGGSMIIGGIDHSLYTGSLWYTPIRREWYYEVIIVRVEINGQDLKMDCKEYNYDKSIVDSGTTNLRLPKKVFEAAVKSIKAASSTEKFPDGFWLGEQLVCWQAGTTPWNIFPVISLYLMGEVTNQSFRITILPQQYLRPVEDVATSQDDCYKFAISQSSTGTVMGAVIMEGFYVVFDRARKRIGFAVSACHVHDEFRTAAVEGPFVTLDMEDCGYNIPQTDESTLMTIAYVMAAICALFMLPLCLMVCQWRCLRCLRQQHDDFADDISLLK
T2 sequence (P08684 whole entry): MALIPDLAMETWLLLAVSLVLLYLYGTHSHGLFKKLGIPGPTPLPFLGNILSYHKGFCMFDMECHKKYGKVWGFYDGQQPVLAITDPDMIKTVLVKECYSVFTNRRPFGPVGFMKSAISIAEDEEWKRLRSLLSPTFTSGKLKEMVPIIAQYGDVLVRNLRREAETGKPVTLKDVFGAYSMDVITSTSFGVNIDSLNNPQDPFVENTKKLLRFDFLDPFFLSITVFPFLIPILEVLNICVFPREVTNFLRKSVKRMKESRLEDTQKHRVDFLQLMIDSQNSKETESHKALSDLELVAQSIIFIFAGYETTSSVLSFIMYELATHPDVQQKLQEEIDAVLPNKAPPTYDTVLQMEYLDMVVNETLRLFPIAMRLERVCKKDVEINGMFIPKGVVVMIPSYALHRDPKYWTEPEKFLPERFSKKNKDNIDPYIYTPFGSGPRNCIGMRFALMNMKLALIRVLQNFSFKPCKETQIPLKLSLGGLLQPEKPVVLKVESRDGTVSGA

Compound	pIC50 (Recombinant human BACE-1)	also measured
CC(F)(F)Oc1ccc(C(=O)Nc2ccnc([C@]3(C)C=CSC(N)=N3)c2)nc1 [Compound I-24]	–	remaining amount of the compound after the reaction [2]: 98%
COc1cnc(C(=O)Nc2ccnc([C@]3(C)C=CSC(N)=N3)c2)cn1 [Compound I-47]	–	solubility at 4 h ([3]; pH 1.2, simulated gastric fluid, medium JP-I, read-out: Solubility (3 stages) in JP-I): > 40 µM; solubility at 4 h ([3]; pH 6.8, fassgf or other biorelevant, medium JP-II, read-out: Solubility (3 stages) in JP-II): > 40 µM
NC1=N[C@](CF)(c2cc(NC(=O)c3cnc(C(F)F)cn3)ccn2)CCS1 [Compound I-246]	≥ 6.00	–
C[C@@]1(c2cc(NC(=O)c3ccccn3)ccn2)CCSC(N)=N1 [Compound I-272]	≥ 6.00	–
C[C@@H]1C[C@@](C)(c2cc(NC(=O)c3ccccn3)ccn2)N=C(N)S1 [Compound I-273]	≥ 6.00	–
Cc1cnc(C(=O)Nc2ccnc([C@]3(C)C[C@@H](C)SC(N)=N3)c2)cn1 [Compound I-293]	≥ 6.00	–
C[C@@H]1C[C@@](C)(c2cc(NC(=O)c3cnccn3)ccn2)N=C(N)S1 [Compound I-294]	≥ 6.00	–

Further lines, with some results ahead:

pIC50 (Recombinant human BACE-1)	Compound	also measured
≥ 6.00	C[C@@]1(c2cc(NC(=O)c3ccc(C#N)cn3)ccn2)CCSC(N)=N1 [Compound I-1]	CYP3A4 MBI: difference between IC50 values with and without preincubation, positive (+) / negative (−) (CYP3A4): (−) (When the difference was 3 μM or less, this was defined as negative(−))
7.48	C[C@@]1(c2cc(NC(=O)c3cnc(OC(F)F)cn3)ccn2)C=CSC(N)=N1 [Compound I-2]	–
7.11	C#Cc1ccc(C(=O)Nc2ccnc([C@]3(C)CCSC(N)=N3)c2)nc1 [Compound I-8]	–
≥ 6.00	CC#Cc1ccc(C(=O)Nc2ccnc([C@]3(C)CCSC(N)=N3)c2)nc1 [Compound I-9]	–
≥ 6.00	C[C@@]1(c2cc(NC(=O)c3ccc(C#N)cn3)ccn2)C=CSC(N)=N1.O=C(O)C(O)C(O)C(=O)O [Compound I-10]	bioavailability [1]: 96.7%
7.32	C=C1C[C@@](C)(c2cc(NC(=O)c3ccc(C(F)F)cn3)ccn2)N=C(N)S1 [Compound I-11]	–
